Measurements: ChEMBL document CHEMBL6092222 (J Med Chem, 2024)
≈ marks a conversion by molar mass, not a printed value.

What was measured:
[1] = Cmax in Sprague-Dawley rat at 5 mg/kg, po measured for 24 hrs by UPLC-MS/MS analysis; format: ADME, organism-based; settings: in vivo
[2] = Prodrug conversion in Famotidine-pretreated Sprague-Dawley rat assessed as AUC (total) of 6-(cyclopropanecarboxamido)-4-((2-methoxy-3-(2-methyl-2H-tetrazol-5-yl)phenyl)amino)-N-(methyl-d3)nicotinamide metabolite at 10 mg/kg, po measured for 24 hrs by UPLC-MS/MS analysis; format: ADME, organism-based; settings: in vivo
[3] = AUC in Sprague-Dawley rat at 5 mg/kg, po measured for 24 hrs by UPLC-MS/MS analysis; format: ADME, organism-based; settings: in vivo
[4] = molecular target: Intestinal-type alkaline phosphatase (Homo sapiens, UniProt P09923); experiment: (§1) Prodrug conversion in tris buffer at pH 7.4 assessed as intestinal recombinant human ALP-mediated 6-(cyclopropanecarboxamido)-4-((2-methoxy-3-(2-methyl-2H-tetrazol-5-yl)phenyl)amino)-N-(methyl-d3)nicotinamide metabolite formation by measuring half life of metabolite at 1 uM incubated for 30 mins by UPLC-MS/MS analysis; format: ADME; settings: pH 7.4, 0.5 h
[5] = Solubility of compound in FaSSIF at pH 6.5 by reversed-phase UPLC analysis; format: physicochemical
[6] = Prodrug conversion in Pentagastrine-pretreated Sprague-Dawley rat assessed as Tmax of 6-(cyclopropanecarboxamido)-4-((2-methoxy-3-(2-methyl-2H-tetrazol-5-yl)phenyl)amino)-N-(methyl-d3)nicotinamide metabolite at 10 mg/kg, po measured for 24 hrs by UPLC-MS/MS analysis; format: ADME, organism-based; settings: in vivo
[7] = Prodrug conversion in Pentagastrine-pretreated Sprague-Dawley rat assessed as Cmax of 6-(cyclopropanecarboxamido)-4-((2-methoxy-3-(2-methyl-2H-tetrazol-5-yl)phenyl)amino)-N-(methyl-d3)nicotinamide metabolite at 10 mg/kg, po measured for 24 hrs by UPLC-MS/MS analysis; format: ADME, organism-based; settings: in vivo
[8] = Cmax in Sprague-Dawley rat at 25 mg/kg, po measured for 24 hrs by UPLC-MS/MS analysis; format: ADME, organism-based; settings: in vivo
[9] = Prodrug conversion in Sprague-Dawley rat assessed as AUC of 6-(cyclopropanecarboxamido)-4-((2-methoxy-3-(2-methyl-2H-tetrazol-5-yl)phenyl)amino)-N-(methyl-d3)nicotinamide metabolite at 150 mg/kg, po measured for 24 hrs by UPLC-MS/MS analysis; format: ADME, organism-based; settings: in vivo
[10] = Tmax in Sprague-Dawley rat at 25 mg/kg, po measured for 24 hrs by UPLC-MS/MS analysis; format: ADME, organism-based; settings: in vivo
[11] = molecular target: Intestinal-type alkaline phosphatase 1 (Rattus norvegicus, UniProt P15693); experiment: as §1, with “rat” for “human”; format: ADME; settings: pH 7.4, 0.5 h
[12] = Chemical stability of compound in phosphate buffer at pH 6.5 at 37 degreeC assessed as half life measured for 24 hrs by reversed phase-HPLC analysis; format: physicochemical
[13] = Prodrug conversion in Famotidine-pretreated Sprague-Dawley rat assessed as Tmax of 6-(cyclopropanecarboxamido)-4-((2-methoxy-3-(2-methyl-2H-tetrazol-5-yl)phenyl)amino)-N-(methyl-d3)nicotinamide metabolite at 10 mg/kg, po measured for 24 hrs by UPLC-MS/MS analysis; format: ADME, organism-based; settings: in vivo
[14] = Prodrug conversion in Sprague-Dawley rat assessed as Cmax of 6-(cyclopropanecarboxamido)-4-((2-methoxy-3-(2-methyl-2H-tetrazol-5-yl)phenyl)amino)-N-(methyl-d3)nicotinamide metabolite at 25 mg/kg, po measured for 24 hrs by UPLC-MS/MS analysis; format: ADME, organism-based; settings: in vivo
[15] = Chemical stability of compound in acetate buffer at pH 4 at 37 degreeC assessed as half life measured for 24 hrs by reversed phase-HPLC analysis; format: physicochemical
[16] = Prodrug conversion in Sprague-Dawley rat assessed as AUC of 6-(cyclopropanecarboxamido)-4-((2-methoxy-3-(2-methyl-2H-tetrazol-5-yl)phenyl)amino)-N-(methyl-d3)nicotinamide metabolite at 25 mg/kg, po measured for 24 hrs by UPLC-MS/MS analysis; format: ADME, organism-based; settings: in vivo
[17] = Tmax in Sprague-Dawley rat at 5 mg/kg, po measured for 24 hrs by UPLC-MS/MS analysis; format: ADME, organism-based; settings: in vivo
[18] = Prodrug conversion in Sprague-Dawley rat assessed as AUC of 6-(cyclopropanecarboxamido)-4-((2-methoxy-3-(2-methyl-2H-tetrazol-5-yl)phenyl)amino)-N-(methyl-d3)nicotinamide metabolite at 5 mg/kg, po measured for 24 hrs by UPLC-MS/MS analysis; format: ADME, organism-based; settings: in vivo
[19] = Chemical stability of compound in 0.1 M HCl at pH 1 at 37 degreeC assessed as half life measured for 24 hrs by reversed phase-HPLC analysis; format: physicochemical
[20] = Prodrug conversion in Sprague-Dawley rat assessed as Tmax of 6-(cyclopropanecarboxamido)-4-((2-methoxy-3-(2-methyl-2H-tetrazol-5-yl)phenyl)amino)-N-(methyl-d3)nicotinamide metabolite at 150 mg/kg, po measured for 24 hrs by UPLC-MS/MS analysis; format: ADME, organism-based; settings: in vivo
[21] = Prodrug conversion in Famotidine-pretreated Sprague-Dawley rat assessed as Cmax of 6-(cyclopropanecarboxamido)-4-((2-methoxy-3-(2-methyl-2H-tetrazol-5-yl)phenyl)amino)-N-(methyl-d3)nicotinamide metabolite at 10 mg/kg, po measured for 24 hrs by UPLC-MS/MS analysis; format: ADME, organism-based; settings: in vivo
[22] = Prodrug conversion in Sprague-Dawley rat assessed as Cmax of 6-(cyclopropanecarboxamido)-4-((2-methoxy-3-(2-methyl-2H-tetrazol-5-yl)phenyl)amino)-N-(methyl-d3)nicotinamide metabolite at 5 mg/kg, po measured for 24 hrs by UPLC-MS/MS analysis; format: ADME, organism-based; settings: in vivo
[23] = Prodrug conversion in Sprague-Dawley rat assessed as Tmax of 6-(cyclopropanecarboxamido)-4-((2-methoxy-3-(2-methyl-2H-tetrazol-5-yl)phenyl)amino)-N-(methyl-d3)nicotinamide metabolite at 25 mg/kg, po measured for 24 hrs by UPLC-MS/MS analysis; format: ADME, organism-based; settings: in vivo
physchem [24] = settings: aqueous buffer, pH 1
Description: Solubility of compound in aqueous buffer at pH 1 at 25 degreeC by reversed phase-HPLC analysis

physchem [25] = settings: aqueous buffer, pH 4
Description: Solubility of compound in aqueous buffer at pH 4 at 25 degreeC by reversed phase-HPLC analysis

physchem [26] = settings: aqueous buffer, pH 6.5
Description: Solubility of compound in aqueous buffer at pH 6.5 at 25 degreeC by reversed phase-HPLC analysis

[27] = Solubility of compound in FeSSIF at pH 5 by reversed-phase UPLC analysis; format: physicochemical
[28] = Prodrug conversion in Sprague-Dawley rat assessed as Cmax of 6-(cyclopropanecarboxamido)-4-((2-methoxy-3-(2-methyl-2H-tetrazol-5-yl)phenyl)amino)-N-(methyl-d3)nicotinamide metabolite at 150 mg/kg, po measured for 24 hrs by UPLC-MS/MS analysis; format: ADME, organism-based; settings: in vivo
[29] = Prodrug conversion in Sprague-Dawley rat assessed as Tmax of 6-(cyclopropanecarboxamido)-4-((2-methoxy-3-(2-methyl-2H-tetrazol-5-yl)phenyl)amino)-N-(methyl-d3)nicotinamide metabolite at 5 mg/kg, po measured for 24 hrs by UPLC-MS/MS analysis; format: ADME, organism-based; settings: in vivo
[30] = AUC in Sprague-Dawley rat at 25 mg/kg, po measured for 24 hrs by UPLC-MS/MS analysis; format: ADME, organism-based; settings: in vivo
[31] = Prodrug conversion in Pentagastrine-pretreated Sprague-Dawley rat assessed as AUC (total) of 6-(cyclopropanecarboxamido)-4-((2-methoxy-3-(2-methyl-2H-tetrazol-5-yl)phenyl)amino)-N-(methyl-d3)nicotinamide metabolite at 10 mg/kg, po measured for 24 hrs by UPLC-MS/MS analysis; format: ADME, organism-based; settings: in vivo

Intestinal-type alkaline phosphatase, sequence (P09923 whole entry): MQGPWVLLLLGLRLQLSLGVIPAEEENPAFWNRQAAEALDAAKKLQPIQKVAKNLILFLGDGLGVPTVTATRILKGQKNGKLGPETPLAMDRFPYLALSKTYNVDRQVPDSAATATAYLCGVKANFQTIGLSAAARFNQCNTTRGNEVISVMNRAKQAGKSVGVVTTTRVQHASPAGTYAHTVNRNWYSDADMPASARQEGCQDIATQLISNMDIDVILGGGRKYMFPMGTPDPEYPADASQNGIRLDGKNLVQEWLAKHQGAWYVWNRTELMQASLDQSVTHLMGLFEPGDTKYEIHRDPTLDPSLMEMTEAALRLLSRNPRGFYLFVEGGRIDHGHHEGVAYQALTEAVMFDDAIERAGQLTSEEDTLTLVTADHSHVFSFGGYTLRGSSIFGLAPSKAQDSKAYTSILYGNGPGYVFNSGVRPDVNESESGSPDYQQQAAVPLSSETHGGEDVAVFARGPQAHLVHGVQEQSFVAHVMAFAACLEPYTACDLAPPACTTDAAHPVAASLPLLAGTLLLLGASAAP
Intestinal-type alkaline phosphatase 1, sequence (P15693 whole entry): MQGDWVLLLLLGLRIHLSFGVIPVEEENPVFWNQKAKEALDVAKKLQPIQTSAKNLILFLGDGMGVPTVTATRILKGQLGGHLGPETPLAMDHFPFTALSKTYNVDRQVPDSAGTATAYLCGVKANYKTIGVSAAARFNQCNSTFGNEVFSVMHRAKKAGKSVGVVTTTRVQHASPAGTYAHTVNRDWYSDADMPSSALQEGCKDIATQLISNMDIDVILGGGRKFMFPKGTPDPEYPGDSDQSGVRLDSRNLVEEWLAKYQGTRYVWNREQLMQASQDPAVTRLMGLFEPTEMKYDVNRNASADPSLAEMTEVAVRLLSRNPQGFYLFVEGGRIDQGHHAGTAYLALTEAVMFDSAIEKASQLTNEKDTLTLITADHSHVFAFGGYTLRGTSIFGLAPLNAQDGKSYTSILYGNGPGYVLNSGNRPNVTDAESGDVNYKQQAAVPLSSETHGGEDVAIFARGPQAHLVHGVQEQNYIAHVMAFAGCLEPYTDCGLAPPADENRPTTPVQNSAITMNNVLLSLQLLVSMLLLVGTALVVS

With [2H]C([2H])([2H])NC(=O)c1cn(COP(=O)(O)O)/c(=N/C(=O)C2CC2)cc1Nc1cccc(-c2nnn(C)n2)c1OC the Cmax [1] was “Below_limit_of_detection”, the AUC [2] was 69 µM·h and the AUC [3] was “Below_limit_of_detection”. For the same compound, the t1/2 [4] was under 5 min, the solubility [5] was 1.63 mg/mL (≈ 3040 µM) and the Tmax [6] was 1 h. The Cmax [7] was 11.4 µM, the Cmax [8] was “Below_limit_of_detection” and the AUC [9] was 804.3 µM·h. For the same compound, the Tmax [10] was “Below_limit_of_detection”, the t1/2 [11] was under 5 min and the half-life [12] was 67.1 h. It also gave a Tmax [13] of 1.5 h, a Cmax [14] of 13 µM and a half-life [15] of 286 h. For the same compound, the AUC [16] was 96.9 µM·h, the Tmax [17] was “Below_limit_of_detection” and the AUC [18] was 19.2 µM·h. The half-life [19] was over 500 h, the Tmax [20] was 3 h and the Cmax [21] was 12.4 µM. For the same compound, the Cmax [22] was 4.91 µM, the Tmax [23] was 3 h and the solubility (physchem [24]) was 0.016 mg/mL (≈ 29.9 µM). For the same compound, the solubility (physchem [25]) was 0.027 mg/mL (≈ 50.4 µM), the solubility (physchem [26]) was 0.66 mg/mL (≈ 1230 µM) and the solubility [27] was 0.1 mg/mL (≈ 187 µM). The Cmax [28] was 58.2 µM, the Tmax [29] was 0.5 h and the AUC [30] was “Below_limit_of_detection”. The AUC [31] was 63 µM·h.
